The record followed here is ChEMBL document CHEMBL1201862, “PubChem BioAssay data set” (2004).

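Exposure lasted 48 hours, with cells grown in 96-well plates and compounds tested at five concentrations. Abbreviation: GI50, concentration required for 50% inhibition of growth.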 Activity calls are given as the source filed them. Rule as the data show it: active = GI50 up to about 1.1 µM and inactive = higher. Where only a bound is given, the exact number is not on record here.

Test systems include HOP-92; CCRF-CEM; K562; IGROV-1; SNB-75; UO-31; SW-620; UACC-62; A498; SK-MEL-2; SF-268; NCI-H226; HL-60; COLO 205; SF-295; LOX IMVI; SK-MEL-5; 786-0; BT-549; T47D.
What all share (test): NCI-60 cell line screen, 48 h

As for `N#CC1(Cc2ccccc2Cl)c2ccccc2C=CN1C(=O)c1ccccc1` (stereo not given), the GI50 in the test on HOP-92 was 52.7 µM (inactive); in the test with CCRF-CEM, 57.4 µM (inactive); in the test with K562 it was 25.1 µM (inactive); in the test with IGROV-1, > 100 µM (inactive); with SNB-75, > 100 µM (inactive); with UO-31, 51.9 µM (inactive). The GI50 in the test on SW-620, in the test with UACC-62, in the test on A498, in the test with SK-MEL-2, in the test with SF-268 and with NCI-H226 was > 100 µM (inactive) in each case. In addition, the GI50 is 29 µM (inactive) in the test on HL-60; > 100 µM (inactive) with COLO 205; 81.8 µM (inactive) in the test with SF-295; > 100 µM (inactive) with LOX IMVI; 47.4 µM (inactive) in the test with SK-MEL-5; > 100 µM (inactive) in the test with 786-0.

In the case of `CC(=O)OCCOCn1c2c(c(=S)[nH]c1=O)CCC2`, the GI50 in the test on HOP-92, with CCRF-CEM, in the test with K562, in the test with IGROV-1, in the test on SNB-75 and in the test on UO-31 was > 100 µM (inactive) in each case. The GI50 in the test on SW-620, in the test on BT-549, in the test with SK-MEL-2, with SF-268, with NCI-H226 and with HL-60 was > 100 µM (inactive) in each case. In addition, the GI50 is > 100 µM (inactive) in the test on COLO 205; > 100 µM (inactive) in the test on SF-295; > 100 µM (inactive) in the test with LOX IMVI; > 100 µM (inactive) with SK-MEL-5; 93.8 µM (inactive) in the test with 786-0.

`COC(=O)C1C(OCc2ccccc2)C2CCC1(OC)C=C2C` (stereo not given): the GI50 in the test with HOP-92 was > 100 µM (inactive); in the test with CCRF-CEM, 26.9 µM (inactive); in the test on K562 it was 41.1 µM (inactive); in the test with IGROV-1, > 100 µM (inactive); with SNB-75, > 100 µM (inactive); in the test with UO-31 it was > 100 µM (inactive). The GI50 is > 100 µM (inactive) in the test on SW-620; 64.6 µM (inactive) in the test on UACC-62; > 100 µM (inactive) in the test with A498; > 50.8 µM (inactive) in the test with SK-MEL-2; > 100 µM (inactive) with SF-268; 75.5 µM (inactive) in the test with NCI-H226. In addition, the GI50 is 10.8 µM (inactive) with HL-60; > 100 µM (inactive) in the test with COLO 205; > 79.6 µM (inactive) with SF-295; > 68.7 µM (inactive) in the test with LOX IMVI; > 85.5 µM (inactive) in the test on SK-MEL-5; > 100 µM (inactive) with 786-0.

In the case of `NNC(=O)c1nn[nH]c1C(=O)NN`, the GI50 in the test on CCRF-CEM is > 100 µM (inactive); with K562, > 100 µM (inactive); in the test on UO-31 it was 19 µM (inactive); in the test on BT-549, 13.6 µM (inactive); in the test with SK-MEL-2, > 100 µM (inactive); with SF-268, > 100 µM (inactive). The GI50 with HL-60 was > 100 µM (inactive); in the test with COLO 205, > 100 µM (inactive); in the test with SF-295 it was > 100 µM (inactive); in the test with SK-MEL-5 it was > 100 µM (inactive); in the test with 786-0, 15.5 µM (inactive).

With `COC(=O)C(CCc1ccccc1I)C1=CCC2(CC1)OCCO2` (stereo not given), the GI50 in the test with T47D is 15.8 µM (inactive); in the test with HOP-92 it was 30.4 µM (inactive); in the test on CCRF-CEM, 14 µM (inactive); in the test on K562 it was 66.4 µM (inactive); in the test on IGROV-1 it was 96.2 µM (inactive); in the test with SNB-75 it was 34 µM (inactive). The GI50 in the test on UO-31 was 23.1 µM (inactive); in the test on SW-620 it was 40.4 µM (inactive); in the test on UACC-62 it was 81.5 µM (inactive); in the test on A498, > 100 µM (inactive); with SK-MEL-2, 41.2 µM (inactive); with SF-268, 57.9 µM (inactive). The GI50 in the test with NCI-H226 was > 100 µM (inactive); in the test on HL-60, 0.0435 µM (active); in the test with COLO 205 it was 57.9 µM (inactive); in the test on SF-295, 36.9 µM (inactive); in the test on LOX IMVI, 25.8 µM (inactive); in the test with SK-MEL-5, 15 µM (inactive). Also, in the test on 786-0, the GI50 is 51.3 µM (inactive).

Turning to `Cc1ccc(S(=O)(=O)c2ccccn2)cc1`, the GI50 was > 100 µM (inactive) in the test with HOP-92; > 100 µM (inactive) with CCRF-CEM; > 100 µM (inactive) with K562; > 100 µM (inactive) in the test on IGROV-1; 90.8 µM (inactive) in the test on SNB-75; > 100 µM (inactive) in the test with UO-31. The GI50 in the test with SW-620, with UACC-62, in the test on A498, in the test on SK-MEL-2, in the test with SF-268 and with NCI-H226 was > 100 µM (inactive) throughout. The GI50 with HL-60, in the test on COLO 205, in the test on SF-295, in the test on LOX IMVI, in the test on SK-MEL-5 and in the test on 786-0 was > 100 µM (inactive) each time.

For `CCC#CCCCCCCCCC(F)C(=O)O` (stereo not given), the GI50 in the test on T47D, in the test with HOP-92, in the test with CCRF-CEM, with K562, with IGROV-1 and with SNB-75 was > 100 µM (inactive) throughout. The GI50 in the test on UO-31, in the test with SW-620, in the test on A498, in the test with SK-MEL-2, in the test on SF-268 and in the test with NCI-H226 was > 100 µM (inactive) each time. The GI50 in the test on HL-60, in the test on COLO 205, in the test with SF-295, in the test on LOX IMVI, in the test on SK-MEL-5 and in the test on 786-0 was > 100 µM (inactive) throughout.

For the molecule `N[C@H](C(=O)O)[C@H](Cl)CC(=O)O`, the GI50 with HOP-92, in the test with CCRF-CEM, in the test with K562, in the test with IGROV-1, in the test with SNB-75 and in the test on UO-31 was > 100 µM (inactive) throughout. Besides, the GI50 with SW-620, in the test on UACC-62, in the test on A498, with SK-MEL-2, in the test on SF-268 and in the test with NCI-H226 was > 100 µM (inactive) each time. Further, the GI50 in the test on HL-60, with COLO 205, in the test with SF-295, in the test on LOX IMVI, with SK-MEL-5 and with 786-0 was > 100 µM (inactive) in each case.

For the molecule `COc1cccc(C2c3cc4c(cc3OC(C)(N3CCCC3)C2C)OCO4)c1` (stereo not given), the GI50 in the test with T47D was 11.2 µM (inactive); in the test with HOP-92 it was 10.2 µM (inactive); with CCRF-CEM, 32.7 µM (inactive); in the test with K562, 58.3 µM (inactive); with IGROV-1, 8.38 µM (inactive); with SNB-75 it was 3.18 µM (inactive). Also, the GI50 was 13.1 µM (inactive) in the test with UO-31; 6.55 µM (inactive) in the test on SW-620; 5.38 µM (inactive) with UACC-62; 14 µM (inactive) in the test on A498; 2.45 µM (inactive) with SK-MEL-2; 27.4 µM (inactive) in the test with SF-268. In addition, the GI50 with NCI-H226 is 6.4 µM (inactive); in the test on HL-60, 23.1 µM (inactive); in the test with COLO 205 it was 11.4 µM (inactive); in the test on SF-295, 8.83 µM (inactive); with LOX IMVI, 10.6 µM (inactive); with SK-MEL-5 it was 3.92 µM (inactive). Moreover, the GI50 in the test with 786-0 is 26.1 µM (inactive).

With `CCOC(=O)NC1CN2CCC1CC2` (stereo not given), the GI50 with T47D, with HOP-92, in the test on CCRF-CEM, with K562, in the test on IGROV-1 and with SNB-75 was > 100 µM (inactive) throughout. Moreover, the GI50 in the test on UO-31, in the test on SW-620, with UACC-62, in the test on A498, in the test on SK-MEL-2 and in the test with SF-268 was > 100 µM (inactive) in each case. The GI50 in the test with NCI-H226, in the test on HL-60, with COLO 205, in the test on SF-295, in the test with LOX IMVI and with SK-MEL-5 was > 100 µM (inactive) in each case. For the same molecule, the GI50 in the test with 786-0 was > 100 µM (inactive).

As to `Cc1ccn2c(=O)cc(CN3CCOCC3)nc2c1`, the GI50 in the test on HOP-92, in the test with CCRF-CEM, in the test on K562, with IGROV-1, in the test with SNB-75 and in the test with UO-31 was > 100 µM (inactive) each time. Moreover, the GI50 in the test with SW-620 is > 100 µM (inactive); with BT-549, > 100 µM (inactive); in the test on UACC-62 it was 58.1 µM (inactive); with SK-MEL-2, > 100 µM (inactive); in the test on SF-268, > 100 µM (inactive); with NCI-H226, > 100 µM (inactive). Besides, the GI50 with HL-60, with COLO 205, in the test on SF-295, in the test on LOX IMVI and with 786-0 was > 100 µM (inactive) throughout.

On to `COc1cc(C2c3cc4c(cc3[C@@H](Nc3ccccc3)C3CO[C@@H](OC)[C@H]23)OCO4)cc(OC)c1O` (stereo not given in full), for which the GI50 in the test on T47D is 8.36 µM (inactive); in the test with CCRF-CEM, 2.76 µM (inactive); in the test with K562, 6.78 µM (inactive); with IGROV-1, 20.9 µM (inactive); with SNB-75, 7.41 µM (inactive); in the test with UO-31 it was 3.01 µM (inactive). The GI50 with SW-620 was 6.52 µM (inactive); in the test with SF-268, 7.29 µM (inactive); in the test on HL-60, 2.87 µM (inactive); in the test on COLO 205, 12.3 µM (inactive); in the test on SF-295 it was 3.46 µM (inactive); in the test on SK-MEL-5, 8.55 µM (inactive). The GI50 with 786-0 was 5.14 µM (inactive).
